Laboratory results: ChEMBL document CHEMBL3885861, “Open TG-GATES”

Species on record: Rattus norvegicus
Assay: Open TG-GATES - Regimen: Single
Format: toxicity, organism-based, Sprague-Dawley
Design: regimen Single, gender Male, age 6 weeks
Conditions: in vivo, iv, 0 mg/kg, route intravenous injection, dose level Control; for APTT / Bas / Eos / Fbg / Hb / Ht / Lym / MCH / MCHC / MCV / Mono / Neu / PT / Plat / RBC / Ret / WBC: tissue Blood; for KIDNEY_L / KIDNEY_R / KIDNEY_TOTAL: tissue Kidney; for LIVER: tissue Liver; for A/G / ALP / ALT / AST / BUN / CRE / Ca / Cl / DBIL / GLC / IP / K / LDH / Na / PL / RALB / TBIL / TC / TG / TP / gamma-GTP: tissue Plasma

Structure (SMILES): NCCBr [BROMOETHANAMINE]
- TERMINAL_BW (9 h): 218.3 g
- APTT (9 h): 22.5 s
- Bas (9 h): 0%
- Eos (9 h): 0.8%
- Fbg (9 h): 317.8 mg/dL
- Hb (9 h): 13.3 g/dL
- Ht (9 h): 39%
- Lym (9 h): 78.6%
- MCH (9 h): 21.3 pg
- MCHC (9 h): 34%
- MCV (9 h): 62.7 fL
- Mono (9 h): 2%
- Neu (9 h): 18%
- PT (9 h): 16.3 s
- Plat (9 h): 128.4 x10_4/uL
- RBC (9 h): 623.8 x10_4/ul
- Ret (9 h): 6.4%
- WBC (9 h): 84.9 x10_2/uL
- KIDNEY_L (9 h): 0.9 g
- KIDNEY_R (9 h): 1 g
- KIDNEY_TOTAL (9 h): 1.9 g
- LIVER (9 h): 9.1 g
- A/G (9 h): 1.2
- ALP (9 h): 1721.2 IU/L
- ALT (9 h): 33.4 IU/L
- AST (9 h): 64.6 IU/L
- BUN (9 h): 13.6 mg/dL
- CRE (9 h): 0.2 mg/dL
- Ca (9 h): 10.4 mg/dL
- Cl (9 h): 106.4 meq/L
- DBIL (9 h): 0.002 mg/dL
- GLC (9 h): 188.8 mg/dL
- IP (9 h): 9.6 mg/dL
- K (9 h): 4.2 meq/L
- LDH (9 h): 152.6 IU/L
- Na (9 h): 140.6 meq/L
- PL (9 h): 124.4 mg/dL
- RALB (9 h): 2.9 g/dL
- TBIL (9 h): 0.022 mg/dL
- TC (9 h): 68.8 mg/dL
- TG (9 h): 63.4 mg/dL
- TP (9 h): 5.4 g/dL
- gamma-GTP (9 h): 1.6 IU/L
- TERMINAL_BW (24 h): 226.9 g
- APTT (24 h): 21.5 s
- Bas (24 h): 0%
- Eos (24 h): 0.8%
- Fbg (24 h): 316.6 mg/dL
- Hb (24 h): 13.6 g/dL
- Ht (24 h): 39.1%
- Lym (24 h): 79.2%
- MCH (24 h): 21.2 pg
- MCHC (24 h): 34.7%
- MCV (24 h): 61.1 fL
- Mono (24 h): 2.6%
- Neu (24 h): 16.2%
- PT (24 h): 16.4 s
- Plat (24 h): 126.9 x10_4/uL
- RBC (24 h): 640.8 x10_4/ul
- Ret (24 h): 5.5%
- WBC (24 h): 103.5 x10_2/uL
- KIDNEY_L (24 h): 1 g
- KIDNEY_R (24 h): 1 g
- KIDNEY_TOTAL (24 h): 2 g
- LIVER (24 h): 10.4 g
- A/G (24 h): 1.1
- ALP (24 h): 1595.2 IU/L
- ALT (24 h): 41.4 IU/L
- AST (24 h): 71 IU/L
- BUN (24 h): 18 mg/dL
- CRE (24 h): 0.2 mg/dL
- Ca (24 h): 10.8 mg/dL
- Cl (24 h): 106 meq/L
- DBIL (24 h): 0 mg/dL
- GLC (24 h): 191.6 mg/dL
- IP (24 h): 6.8 mg/dL
- K (24 h): 4.9 meq/L
- LDH (24 h): 222.8 IU/L
- Na (24 h): 140.6 meq/L
- PL (24 h): 147.6 mg/dL
- RALB (24 h): 2.9 g/dL
- TBIL (24 h): 0.006 mg/dL
- TC (24 h): 75.8 mg/dL
- TG (24 h): 134.2 mg/dL
- TP (24 h): 5.5 g/dL
- gamma-GTP (24 h): 2 IU/L
